Where two headings read alike, the source gives them in different places.
Assays:
Format in all cases: binding, mouse
[1] = tested on: monoclonal antibody MA-7 (FERM BP-1494); test: Assay test II: competitive ELISA on immobilised MA-BSA, reactivities of the monoclonal antibody with various compounds
Procedure: (§1) First, in each analytic well of a 96-well U-bottomed ELISA plate was apportioned each 50 µl of an MA-BSA solution (2 µg/ml, dissolved in 0.05 M carbonate buffer of pH 9.8) which is the antigen for analysis prepared in Example 1, and the mixture was left to stand overnight at 4 °C (by such treatment, MA-BSA was adsorbed onto the surface of each analytic well).
(§2) Subsequently, after each analytic well was washed with a washing solution (PBS containing 0.05 % of Tween 20), each apportioned in each analytic well, left to stand at room temperature for 2 hours, these respective analytic wells were washed with the washing solution, and the culture supernatant in each culture well of the above culture plate was apportioned each in 50 µl into these respective analytic wells and left to stand at room temperature for 2 hours (for the negative control, a supernatant obtained by culturing similarly a mixture of mouse spleen lymphocytes and mouse myeloma cells before fusion was employed; on the other hand, for the positive control, the serum of mouse used for cell fusion in the present invention diluted to 100-fold with the washing liquor was used).
(§3) Next, each analytic well in the ELISA plate was washed, and each 50 µl of an alkaline phosphatase labeled antibody solution to mouse immunoglobulin was apportioned into each analytic well and left to stand at room temperature for 1 hour. And, after each analytic well in the ELISA plate was washed, each 100 µl of a sodium p-nitrophenylphosphate 6H₂O solution (1 mg/ml) was apportioned into each analytic well and, after the reaction at room temperature for 30 minutes, absorbance of each well at 405 nm was assayed by means of a spectrophotometer for microplate.
(§4) In order to determine the reaction specificities of the monoclonal antibodies such as MA-7, MA-13 and MA-15, reactivities with compounds different from MA such as AP (amphetamine), EP (ephedrin), ME (methylephedrin), MPA (methoxyphenamine), PT (phentermine), norEp (norephedrin), DBED (N,N′-dibenzylethylenediamine), OH-MA (p-hydroxymethamphetamine), OH-AP (p-hydroxyamphetamine), OH-EP (p-hydr oxyephedrin), OH-norEP (p-hydroxynorephedrin), Mes (mescaline), etc. were investigated according to the same ELISA method as described above in the step (c) (however, the reagent used for assay was made two-fold in amount, and a mixed solution of 50 µl of a solution of a compound diluted at multiple stages with the washing liquor and 50 µl of a monoclonal antibody solution was used in place of the hybridoma culture supernatant).
(§5) The reactivities of these antibodies with MA, AP, EP, ME, MPA, PT, norEp, DBED, OH-MA, OH-AP, OH-EP, OH-norEP and Mes are shown in Table 1 in terms of the reactive ratios relative to MA.

[2] = tested on: monoclonal antibody MA-13 (FERM BP-1495); test: as above
Procedure: as §1, §2, §3, §4, §5

[3] = tested on: monoclonal antibody MA-15 (FERM BP-1496); test: as above
Procedure: as §1, §2, §3, §4, §5

[4] = tested on: "enzyme-labeled antibody" (peroxidase-labeled monoclonal antibody MA-15); test: Reactivity of MA analogous compounds in the competitive enzyme immunoassay with MA bound protein and enzyme-labeled antibody (Example 15)
Procedure: The antibody in the "enzyme-labeled antibody" was obtained as the purified monoclonal antibody as shown in Reference example 2 by use of the MA-15 strain (FERM-P 1496).
First, […] of horseradish peroxidase was dissolved in 1 ml of distilled water and 200 µl of 0.1 M sodium periodate was added, followed by standing at room temperature for 30 minutes. After the enzyme solution was dialyzed at 4 °C overnight against 1 mM acetate buffer (pH 4.5), 100 µl of 0.2 M sodium carbonate buffer (pH 9.5) was added to adjust pH to 9.5. On the other hand, 8 mg of the monoclonal antibody (MA-15) dissolved in PBS was dialyzed at 4 °C overnight against 0.01 M sodium carbonate buffer (pH 9.5). The peroxidase and the monoclonal antibody thus obtained was mixed, left to stand at room temperature for 2 hours and a half, and sodium borohydride was added to the reaction mixture, followed by standing at 4 °C for 2 hours. The peroxidase-labeled monoclonal antibody thus obtained was dialyzed at 4 °C overnight against PBS, and this was diluted to 100-fold with PBS containing 0.01 % sodium ethylmercurithiosalicylate, apportioned each in 0.2 ml into a bottle and stored under lyophilization to provide the "enzyme-labeled antibody" (10 µg/bottle) which is the assay kit of MA. During assay of MA, 0.2 ml of distilled water was added into the bottle to dissolve well the lyophilized powder, and the solution was suitable diluted with PBS before use.
The MA-BSA which is the "MA bound protein" (bound product of MA and BSA, 5 µg/ml) was apportioned each in 100 µl into a 96-well flat-bottomed plate for immunoassay which is the solid phase support (microplate made of polystyrene produced by Nunc Co.), and left to stand under 4 °C overnight to immobilize MA-BSA onto each well. Next, for preventing non-specific adsorption of the "enzyme-labeled antibody" onto the plate, a washing solution containing 10 % calf serum (phosphate buffer of pH 7.4 containing 0.05 % of Tween 20) was placed and left to stand under room temperature for 30 minutes. Next, after washing with the same washing solution, 50 µl of the standard MA solution prepared by using the diluted urine of healthy man (produced by HYLAND DIAGNOSTIC CO.) to 5-fold with the same washing solution [(0 to 150 ng)/50 µl] and 50 µl of the "enzyme-labeled antibody" prepared in Example 1 were added at the same time into each well, followed by mixing and standing under room temperature for 30 minutes. […] Finally, each 50 µl of 2N sulfuric acid was apportioned to stop the enzymatic reaction, and absorbance of the solution after stopping of the reaction at 492 nm was assayed by use of a microplate photometer. […]

[5] = tested on: "antibody carrier" (monoclonal antibody to MA on polystyrene latex); test: Latex agglutination assay with MA carrier and antibody carrier, time until agglutination is seen with naked eyes; conditions: same as at 0 ppm
Procedure: Each solution was quickly stirred with a stirring stick to carry out the reaction while moving the reaction plate, forward and backward, left and right, at a constant temperature (e.g. room temperature) for a certain period of time (e.g. 1 to 2 minutes), and the agglutination of each set formed by the reaction between the "antibody carrier" and the "MA carrier" is observed. At this time, by observing with comparison between the agglutination in the case of the set by use of the "standard MA solution" and the agglutination in the case of the set by use of the sample to be assayed, the MA content in the sample to be assayed can be known.
A mixture of 100 µl of MA-BSA solution (400 µg/ml) with 100 µl of a polystyrene latex which is the carrier (solid components 4.0 % by weight, particle size 0.8 µm, solvent PBS was shaken at 37 °C for 3 hours to have the MA-BSA carried physically on the polystyrene latex surface to obtain the "MA carrier".
The "MA carrier" prepared in Example 18 and the "antibody carrier " prepared in Example 19 were added dropwise each in 25 µl separately from each other onto the three sheets of reaction plates, and on the same plates were further added each 5 µl of the samples to be assayed with MA concentrations of 0.5 ppm and 1.0 ppm prepared by dilution with urine of healthy man (produced by HYLAND DIAGNOSTIC CO.) separately from each other, followed immediately by mixing of the "MA carrier", the "antibody carrier" and the sample to be assayed with a stirring stick.
In Example 20, samples to be assayed were prepared by use of methylephedrine (ME) in place of MA and the assay was carried out, following otherwise the same procedure.
In Example 20, samples to be assayed were prepared by use of ephedrine (EP) in place of MA and the assay was carried out, following otherwise the same procedure.

[6] = monoclonal antibody MA-7, compound diluted at multiple stages, MA = 1
[7] = monoclonal antibody MA-13, compound diluted at multiple stages, MA = 1
[8] = monoclonal antibody MA-15, compound diluted at multiple stages, MA = 1
[9] = enzyme-labeled antibody, according to Example 6, MA = 100
[10] = concentration in sample 0.5 ppm
[11] = concentration in sample 1.0 ppm

Row | SMILES | reactive ratios relative to MA [1, 6] | reactive ratios relative to MA [2, 7] | reactive ratios relative to MA [3, 8] | other results
1 | CC(N)Cc1ccc(O)cc1 (centres unmarked) [OH-AP, p-hydroxyamphetamine] | <0.001 | 0.003 | <0.001 | reactive ratios relative to MA ([1]; monoclonal antibody MA-7, compound diluted at multiple stages, MA = 1, listed as p-hydroxyamphetamine): < 0.001; reactive ratios relative to MA ([3]; monoclonal antibody MA-15, compound diluted at multiple stages, MA = 1, listed as p-hydroxyamphetamine): < 0.001
2 | CNC(C)Cc1ccccc1OC (centres unmarked) [MPA, methoxyphenamine] | 0.023 | 0.0037 | 0.0016 | Reactivity (%) [4, 9]: <0.2%
3 | COc1cc(CCN)cc(OC)c1OC [Mes, mescaline] | – | – | – | reactive ratios relative to MA [1]: <0.00001; reactive ratios relative to MA [2]: <0.00001
4 | CNC(C)C(O)c1ccc(O)cc1 (centres unmarked) [OH-EP, p-hydroxyephedrine] | <0.001 | <0.001 | 0.0031 | reactive ratios relative to MA ([1]; monoclonal antibody MA-7, compound diluted at multiple stages, MA = 1, listed as p-hydroxyephedrine): < 0.001; reactive ratios relative to MA ([2]; monoclonal antibody MA-13, compound diluted at multiple stages, MA = 1, listed as p-hydroxephedrine): < 0.001
5 | CC(C)(N)Cc1ccccc1 [PT, phentermine] | 0.042 | 0.12 | 0.0039 | –
6 | CNC(C)Cc1ccc(O)cc1 (centres unmarked) [OH-MA, p-hydroxymethamphetamine] | 0.0039 | 0.14 | 0.014 | –
7 | c1ccc(CNCCNCc2ccccc2)cc1 [DBED, N,N′-dibenzylethylenediamine] | 0.17 | 0.23 | 0.0055 | –
8 | CN[C@@H](C)[C@H](O)c1ccccc1 [EP, ephedrin] | 0.0018 | 0.0025 | 0.0012 | time until particles of polystyrene latex were observed with naked eyes to be agglutinated [5, 10]: ≤ 30 s; time until particles of polystyrene latex were observed with naked eyes to be agglutinated [5, 11]: ≤ 30 s
9 | CC(N)C(O)c1ccc(O)cc1 (centres unmarked) [OH-norEP, p-hydroxynorephedrin] | <0.001 | <0.001 | <0.001 | reactive ratios relative to MA ([1]; monoclonal antibody MA-7, compound diluted at multiple stages, MA = 1, listed as p-hydroxynorephedrine): < 0.001; reactive ratios relative to MA ([2]; monoclonal antibody MA-13, compound diluted at multiple stages, MA = 1, listed as p-hydroxynorephedrine): < 0.001; reactive ratios relative to MA ([3]; monoclonal antibody MA-15, compound diluted at multiple stages, MA = 1, listed as p-hydroxynorephedrine): < 0.001
10 | CN[C@@H](C)Cc1ccccc1 [MA, methamphetamine] | 1 | 1 | 1 | Reactivity (%) [4, 9]: 100%
11 | CC(N)C(O)c1ccccc1 (centres unmarked) [norEP, norephedrin] | <0.001 | <0.001 | <0.001 | reactive ratios relative to MA ([1]; monoclonal antibody MA-7, compound diluted at multiple stages, MA = 1, listed as norephedrine): < 0.001; reactive ratios relative to MA ([2]; monoclonal antibody MA-13, compound diluted at multiple stages, MA = 1, listed as norephedrine): < 0.001; reactive ratios relative to MA ([3]; monoclonal antibody MA-15, compound diluted at multiple stages, MA = 1, listed as norephedrine): < 0.001
12 | CC(N)Cc1ccccc1 (centres unmarked) [AP, amphetamine] | – | – | – | reactive ratios relative to MA [1]: 0.0051; reactive ratios relative to MA [2]: 0.0062; reactive ratios relative to MA [3]: 0.019; Reactivity (%) [4]: 1.8%
13 | CC([C@H](O)c1ccccc1)N(C)C (some centres unmarked) [ME, methylephedrin] | 0.022 | 0.028 | 0.016 | Reactivity (%) [4, 9]: 1.2%; time until particles of polystyrene latex were observed with naked eyes to be agglutinated [5, 10]: ≤ 30 s; time until particles of polystyrene latex were observed with naked eyes to be agglutinated [5, 11]: ≤ 30 s

From EP0311383B1, “Monoclonal antibody to methamphetamine, preparation of the same, assay method and assay kit of methamphetamine” (UBE INDUSTRIES, LTD., priority 1987, dated 1989)
